The record followed here is patent publication EP3868760A1, “2,3,5-SUBSTITUTED PYRROLO[2,3-B]PYRIDINES AS ERBB MODULATORS USEFUL FOR TREATING CANCER” (PearlRiver Bio GmbH, priority 2020, dated 2021).

One assay concerns the target EGFR wt (Homo sapiens, UniProt P00533). Kind of assay: EGFR wt Lance assay. The class given is biochemical.
Another assay deals with A431. Kind of assay: A431 CellTiter-Glo assay. Particulars: Homo sapiens, A-431; 72 h incubation; read-out: A431 CTG IC50. The class given is cell-based. The method, then: (§1) The CellTiter-Glo Luminescent Cell Viability Assay (Promega) is a homogeneous method of determining the number of viable cells in culture. It is based on quantification of ATP, indicating the presence of metabolically active cells. Cells are seeded on day 1 at cell numbers that assure assay linearity and optimal signal intensity. After incubation for 24h in humidified chambers at 37°C and 5% CO2, compounds in DMSO are added at different concentrations. Cells are further incubated for 72 h at 37°C and 5% CO2. Cells treated with the compound vehicle DMSO are used as positive controls and cells treated with 10 µM Staurosporine serve as negative controls. At day 5 the CellTiter Glo Reagent is prepared according to the instructions of the kit (Promega Inc.): Reagent is mixed 1:1 with cell culture medium. Thereon, mixture and assay plates are equilibrated at room temperature for 20 min. Equal volumes of the reagent-medium-mixture is added to the volume of culture medium present in each well. The plates are mixed at ∼200 rpm for 2 minutes on an orbital shaker. The microplates are then incubated at room temperature for 10 minutes for stabilization of the luminescent signal. Following incubation the luminescence is recorded on a Victor microplate reader (Perkin Elmer) using a 200 ms integration time. The data is then analyzed with Excel using the XLFIT Plugin (dose response Fit 205) for IC50-determination. As quality control the Z'-factor is calculated from 16 positive and negative control values. Only assay results showing a Z'-factor ≥ 0.5 are used for further analysis.

The subject of the next assay is H1975. Kind of assay: H1975 CellTiter-Glo assay. The class given is cell-based. The following applies: Homo sapiens, NCI-H1975; 72 h incubation; read-out: H1975 CTG IC50. The procedure:
as §1

A further assay addresses EGFR T790M L858R (Homo sapiens, UniProt P00533, L858R/T790M). Kind of assay: EGFR T790ML858R Lance assay. The class given is biochemical.
Assay [1] deals with EGFR Exon 20 InsNPH Ba/F3. Kind of assay: EGFR Exon 20 InsNPH Ba/F3 CellTiter-Glo assay. The following applies: Mus musculus, BaF3; 72 h incubation; read-out: EGFR Exon 20 InsNPH Ba/F3 CTG IC50. The format is cell-based. The procedure: as §1
A further assay relates to EGFR vIII Ba/F3. Kind of assay: EGFR vIII Ba/F3 CellTiter-Glo assay. The class given is cell-based. Particulars: Mus musculus, BaF3; 72 h incubation; read-out: EGFR vIII Ba/F3 CTG IC50. The method, then: as §1
For the next assay, the system named is Cuto-17. Kind of assay: Cuto-17 CellTiter-Glo assay. The class given is cell-based. Particulars: CUTO17; 72 h incubation; read-out: Cuto-17 CTG IC50. The method, then:
as §1

A further assay concerns the target T1, HER2 INS YVMA (Homo sapiens, UniProt P04626, INS775YVMA).
T1 construct: purchased DPF
The assay is described as follows: Her2 Exon 20 InsYVMA Lance kinase activity assay. The class given is biochemical. Particulars: 1 h incubation, 1,6 µM ATP. The method, then: This protocol describes how the Lance Kinase Activity Assay was performed to determine IC50 values of compounds of general formula (I) against HER2 INS YVMA. The principle behind this enzymatic assay is based upon the phosphorylation of the Ulight-peptide substrate. It is detected by using a specific EU-labeled anti-phospho peptide antibody. The binding of the Eu labeled anti-phospho peptide antibody to the phosphorylated ULight labeled peptide gives rise to a FRET-signal.
Binding of an inhibitor to the kinase prevents phosphorylation of the Ulight-substrate, resulting in a loss of FRET. In table 2 is summarized the relevant information for the LANCE assay. Table 2: Reagents, stock concentrations and final assay concentrations for Her2 INS YVMA.
The compounds of general formula (I) summarized in Table 3 were serial diluted from a 10 mM DMSO stock solution 1:3 over 8 steps in a total volume of 20 µl.
For every sample, 8 µl of kinase-substrate mix was transferred into a suitable assay plate (e.g. Corning #3673). Compound was added via pintool transfer (10nl/well) using a Biomek FX robot (BeckmanCoulter). Reaction was started by addition of 2µl ATP working solution and mixed using variomag teleshaker (Thermo Fischer Scientific). After 1 h incubation at room temperature the reaction was stopped with 10µl detection mix containing the Eu-labeled phosphospecific antibody and 10mM EDTA. After a second incubation period of 1 h at room temperature the FRET signal was measured at 340 nm excitation, 665 nm and 615 nm emission (for the ULight-substrate and Eu-AB, respectively) with an Envision spectrophotometer (Perkin Elmer, Waltham, MA, USA) with 50 µs delay and 300 µs integration time. IC50 values were determined from the sigmoidal dose response curves with the software Quattro Workflow (Quattro GmbH, Munich, Germany).

The test system of assay [2] is Her2 Exon 20 InsYVMA Ba/F3. The assay is described as follows: Her2 Exon 20 InsYVMA Ba/F3 CellTiter-Glo assay. The class given is cell-based. Particulars: Mus musculus, BaF3; 72 h incubation; read-out: Her2 Exon 20 InsYVMA Ba/F3 CTG IC50. The method, then:
as §1

A further assay deals with EGFR (del746-750) (Homo sapiens, UniProt P00533, DEL746-750). The assay is described as follows: EGFR (del746-750) Lance assay. The format is biochemical.
The next assay concerns the target EGFR L858R (Homo sapiens, UniProt P00533, L858R). The assay is described as follows: EGFR L858R Lance assay. The class given is biochemical.
For another assay, the system named is EGFR L858R Ba/F3. Kind of assay: EGFR L858R Ba/F3 CellTiter-Glo assay. The format is cell-based. Particulars: Mus musculus, BaF3; 72 h incubation; read-out: EGFR L858R Ba/F3 CTG IC50. The method, then: as §1, with “The microplates are then incubated at room temperature for 10 minutes for stabilization of the luminescent signal.” left out, “Only assay results showing a Z'-factor ≥ 0.5 are used for further analysis.” left out

A further assay concerns EGFR L858R T790M Ba/F3. Kind of assay: EGFR L858RT790M Ba/F3 CellTiter-Glo assay. The class given is cell-based. Particulars: Mus musculus, BaF3; 72 h incubation; read-out: EGFR L858R T790M Ba/F3 CTG IC50. The method, then:
as §1, with “The microplates are then incubated at room temperature for 10 minutes for stabilization of the luminescent signal.” left out, “Only assay results showing a Z'-factor ≥ 0.5 are used for further analysis.” left out

Where only a bound is given, the exact number is not on record here.

EGFR T790M L858R, sequence (P00533 25-1210 T790M/L858R): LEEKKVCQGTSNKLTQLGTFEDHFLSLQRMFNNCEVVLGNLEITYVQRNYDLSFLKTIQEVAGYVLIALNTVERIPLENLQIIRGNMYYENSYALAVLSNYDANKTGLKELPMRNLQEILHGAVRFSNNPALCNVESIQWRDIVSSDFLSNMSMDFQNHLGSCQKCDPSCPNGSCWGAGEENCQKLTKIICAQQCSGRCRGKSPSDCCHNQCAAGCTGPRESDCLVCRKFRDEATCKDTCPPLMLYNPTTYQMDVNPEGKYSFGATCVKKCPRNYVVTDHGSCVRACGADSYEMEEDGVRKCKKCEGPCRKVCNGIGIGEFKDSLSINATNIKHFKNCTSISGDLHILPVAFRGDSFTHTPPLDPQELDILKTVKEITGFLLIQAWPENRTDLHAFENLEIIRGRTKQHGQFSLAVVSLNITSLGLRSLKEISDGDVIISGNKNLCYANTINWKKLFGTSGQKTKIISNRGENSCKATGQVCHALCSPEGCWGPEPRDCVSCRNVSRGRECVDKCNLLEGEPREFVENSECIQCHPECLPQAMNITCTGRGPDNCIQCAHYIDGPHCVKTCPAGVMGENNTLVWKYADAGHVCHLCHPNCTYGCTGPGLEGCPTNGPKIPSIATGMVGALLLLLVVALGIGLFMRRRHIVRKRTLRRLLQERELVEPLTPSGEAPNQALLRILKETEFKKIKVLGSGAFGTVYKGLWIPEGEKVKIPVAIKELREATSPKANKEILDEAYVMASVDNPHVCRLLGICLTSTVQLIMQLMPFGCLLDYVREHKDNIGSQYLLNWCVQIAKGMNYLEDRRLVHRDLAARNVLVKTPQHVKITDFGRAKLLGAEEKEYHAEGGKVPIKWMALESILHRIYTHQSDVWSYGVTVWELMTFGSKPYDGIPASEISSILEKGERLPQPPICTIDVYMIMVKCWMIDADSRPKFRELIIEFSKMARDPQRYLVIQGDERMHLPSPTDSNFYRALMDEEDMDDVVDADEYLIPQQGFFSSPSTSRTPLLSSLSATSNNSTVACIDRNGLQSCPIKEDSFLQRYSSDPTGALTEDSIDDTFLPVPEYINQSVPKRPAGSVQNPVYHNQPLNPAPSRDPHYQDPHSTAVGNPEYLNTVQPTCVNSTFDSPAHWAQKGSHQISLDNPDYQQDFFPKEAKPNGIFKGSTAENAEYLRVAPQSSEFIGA
T1 sequence (P04626 with tags, fused parts or gaps INS775YVMA): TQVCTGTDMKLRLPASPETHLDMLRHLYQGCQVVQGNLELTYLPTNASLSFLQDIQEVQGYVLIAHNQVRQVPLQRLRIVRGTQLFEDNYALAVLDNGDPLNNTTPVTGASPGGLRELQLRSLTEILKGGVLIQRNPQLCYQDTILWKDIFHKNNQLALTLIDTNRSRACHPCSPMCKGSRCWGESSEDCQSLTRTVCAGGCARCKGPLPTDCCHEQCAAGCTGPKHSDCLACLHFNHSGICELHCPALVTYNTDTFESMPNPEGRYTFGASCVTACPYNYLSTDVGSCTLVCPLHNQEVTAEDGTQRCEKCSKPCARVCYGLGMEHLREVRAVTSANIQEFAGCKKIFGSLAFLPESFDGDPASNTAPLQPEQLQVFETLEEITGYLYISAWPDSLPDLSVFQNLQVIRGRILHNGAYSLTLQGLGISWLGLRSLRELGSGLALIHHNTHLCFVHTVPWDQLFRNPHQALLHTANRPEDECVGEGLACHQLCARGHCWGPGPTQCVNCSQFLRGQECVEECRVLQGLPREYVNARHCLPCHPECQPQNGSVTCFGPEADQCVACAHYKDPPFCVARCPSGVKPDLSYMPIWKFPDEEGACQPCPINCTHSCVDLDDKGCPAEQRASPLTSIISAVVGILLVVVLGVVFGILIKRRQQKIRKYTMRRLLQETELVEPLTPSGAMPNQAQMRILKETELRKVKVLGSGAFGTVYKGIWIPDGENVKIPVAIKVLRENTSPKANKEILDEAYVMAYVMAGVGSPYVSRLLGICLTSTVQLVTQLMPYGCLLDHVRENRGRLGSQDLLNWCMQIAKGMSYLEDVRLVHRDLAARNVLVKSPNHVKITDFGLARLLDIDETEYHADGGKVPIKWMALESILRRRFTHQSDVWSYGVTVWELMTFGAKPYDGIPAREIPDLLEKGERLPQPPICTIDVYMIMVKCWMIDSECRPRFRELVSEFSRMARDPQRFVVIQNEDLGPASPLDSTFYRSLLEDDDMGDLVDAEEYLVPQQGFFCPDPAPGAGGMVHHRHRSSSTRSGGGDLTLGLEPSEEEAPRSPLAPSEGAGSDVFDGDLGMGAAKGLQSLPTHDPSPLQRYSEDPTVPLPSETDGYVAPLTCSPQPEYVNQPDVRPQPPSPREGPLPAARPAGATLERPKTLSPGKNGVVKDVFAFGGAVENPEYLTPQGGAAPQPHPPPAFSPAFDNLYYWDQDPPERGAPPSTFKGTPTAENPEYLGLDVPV
EGFR wt, sequence (P00533 25-1210): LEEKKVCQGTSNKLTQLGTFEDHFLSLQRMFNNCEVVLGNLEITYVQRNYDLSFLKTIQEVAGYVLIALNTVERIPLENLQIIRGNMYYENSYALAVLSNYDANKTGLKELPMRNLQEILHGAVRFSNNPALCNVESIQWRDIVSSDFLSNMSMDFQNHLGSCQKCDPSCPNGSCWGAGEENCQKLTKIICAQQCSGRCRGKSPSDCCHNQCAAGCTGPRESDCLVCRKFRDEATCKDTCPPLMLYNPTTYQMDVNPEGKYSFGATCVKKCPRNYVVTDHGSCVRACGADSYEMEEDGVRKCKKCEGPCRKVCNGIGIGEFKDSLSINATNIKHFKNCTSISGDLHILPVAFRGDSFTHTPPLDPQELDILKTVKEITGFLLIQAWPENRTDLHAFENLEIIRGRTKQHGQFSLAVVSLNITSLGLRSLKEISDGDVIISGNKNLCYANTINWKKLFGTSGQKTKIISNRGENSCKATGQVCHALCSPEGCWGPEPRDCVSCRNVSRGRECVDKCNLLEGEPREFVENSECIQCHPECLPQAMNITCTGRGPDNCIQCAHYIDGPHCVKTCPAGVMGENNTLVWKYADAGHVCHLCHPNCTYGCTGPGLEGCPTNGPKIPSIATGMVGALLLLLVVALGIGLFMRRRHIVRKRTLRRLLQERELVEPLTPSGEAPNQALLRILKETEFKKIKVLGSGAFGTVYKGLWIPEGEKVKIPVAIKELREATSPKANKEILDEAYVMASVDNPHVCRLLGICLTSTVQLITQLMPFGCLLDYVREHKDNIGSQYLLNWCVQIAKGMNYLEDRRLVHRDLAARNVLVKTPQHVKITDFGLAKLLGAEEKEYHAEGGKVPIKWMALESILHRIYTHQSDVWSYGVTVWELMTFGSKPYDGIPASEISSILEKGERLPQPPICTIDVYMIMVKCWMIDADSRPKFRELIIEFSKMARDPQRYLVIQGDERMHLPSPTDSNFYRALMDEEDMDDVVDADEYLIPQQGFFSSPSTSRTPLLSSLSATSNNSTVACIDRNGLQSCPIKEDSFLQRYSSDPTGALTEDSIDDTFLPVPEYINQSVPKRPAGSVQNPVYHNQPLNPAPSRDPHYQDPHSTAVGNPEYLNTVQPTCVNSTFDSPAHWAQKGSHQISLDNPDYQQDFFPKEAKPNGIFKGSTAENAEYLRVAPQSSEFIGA
EGFR (del746-750), sequence (P00533 with tags, fused parts or gaps DEL746-750): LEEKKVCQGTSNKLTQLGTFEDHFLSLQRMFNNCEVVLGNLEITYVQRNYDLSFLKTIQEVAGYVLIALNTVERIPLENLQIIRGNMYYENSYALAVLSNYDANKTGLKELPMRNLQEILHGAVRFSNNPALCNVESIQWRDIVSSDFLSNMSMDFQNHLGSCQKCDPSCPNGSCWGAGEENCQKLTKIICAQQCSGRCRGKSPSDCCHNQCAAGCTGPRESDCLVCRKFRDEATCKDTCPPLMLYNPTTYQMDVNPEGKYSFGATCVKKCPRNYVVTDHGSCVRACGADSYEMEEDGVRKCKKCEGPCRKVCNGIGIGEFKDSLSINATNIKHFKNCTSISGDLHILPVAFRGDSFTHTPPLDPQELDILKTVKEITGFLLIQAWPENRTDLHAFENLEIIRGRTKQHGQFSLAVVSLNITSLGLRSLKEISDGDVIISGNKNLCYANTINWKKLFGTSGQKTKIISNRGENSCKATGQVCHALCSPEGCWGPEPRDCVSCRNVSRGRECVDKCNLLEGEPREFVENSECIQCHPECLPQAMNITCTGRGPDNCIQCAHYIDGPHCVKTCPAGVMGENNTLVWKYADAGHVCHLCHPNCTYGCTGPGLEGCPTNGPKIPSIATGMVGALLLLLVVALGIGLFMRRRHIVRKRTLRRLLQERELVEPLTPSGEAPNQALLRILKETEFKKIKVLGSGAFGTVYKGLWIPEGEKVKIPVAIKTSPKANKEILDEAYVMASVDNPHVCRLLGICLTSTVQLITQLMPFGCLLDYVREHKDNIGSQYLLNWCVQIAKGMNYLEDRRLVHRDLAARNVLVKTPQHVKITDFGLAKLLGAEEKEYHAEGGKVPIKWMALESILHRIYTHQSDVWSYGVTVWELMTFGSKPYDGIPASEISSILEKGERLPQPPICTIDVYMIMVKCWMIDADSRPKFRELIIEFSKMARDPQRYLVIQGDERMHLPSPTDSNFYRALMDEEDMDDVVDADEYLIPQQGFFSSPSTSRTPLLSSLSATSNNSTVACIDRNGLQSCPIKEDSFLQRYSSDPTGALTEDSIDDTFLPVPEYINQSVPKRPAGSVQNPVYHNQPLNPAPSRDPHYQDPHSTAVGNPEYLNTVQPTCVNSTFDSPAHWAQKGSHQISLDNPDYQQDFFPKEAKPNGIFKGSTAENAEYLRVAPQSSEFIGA

For the molecule `C=CC(=O)Nc1cc(-c2c(-c3ccc(N4CCN(C)CC4)cc3)[nH]c3ncc(-c4cnn(C)c4)cc23)ccc1C` [Example 1, N-(2-methyl-5-(5-(1-methyl-1H-pyrazol-4-yl)-2-(4-(4-methylpiperazin-1-yl)phenyl)-1H-pyrrolo[2,3-b]pyridin-3-yl)phenyl)acrylamide], the IC50 is at most 50 nM at EGFR wt; 1000 to 10000 nM with A431; 100 to 500 nM in the assay on H1975; at most 50 nM on EGFR T790M L858R; at most 50 nM in [1]; at most 50 nM in the assay with EGFR vIII Ba/F3. Besides, the IC50 was 100 to 500 nM in the assay on Cuto-17, at most 50 nM at HER2 INS YVMA and 100 to 500 nM in assay [2].

Take `C=CC(=O)Nc1cc(-c2c(-c3ccc(N4CCN(C)CC4)cc3)[nH]c3ncc(-c4ccnn4C)cc23)ccc1C` [Example 2, N-(2-methyl-5-(5-(1-methyl-1H-pyrazol-5-yl)-2-(4-(4-methylpiperazin-1-yl)phenyl)-1H-pyrrolo[2,3-b]pyridin-3-yl)phenyl)acrylamide]: the IC50 against EGFR wt is at most 50 nM; in the assay on A431, 1000 to 10000 nM; in the assay on H1975 it was 100 to 500 nM; on EGFR T790M L858R, at most 50 nM; in [1], 50 to 100 nM; in the assay on EGFR vIII Ba/F3, at most 50 nM. Also, the IC50 in the assay on Cuto-17 is 100 to 500 nM; against HER2 INS YVMA, at most 50 nM; in assay [2], 100 to 500 nM.

`C=CC(=O)Nc1cc(-c2c(-c3ccc(N4CCN(C)CC4)cc3)[nH]c3ncc(-c4cnn(C)c4C)cc23)ccc1C` [Example 3, N-(5-(5-(1,5-dimethyl-1H-pyrazol-4-yl)-2-(4-(4-methylpiperazin-1-yl)phenyl)-1H-pyrrolo[2,3-b]pyridin-3-yl)-2-methylphenyl)acrylamide]: the IC50 at EGFR wt is at most 50 nM; with A431, 500 to 1000 nM; with H1975, 50 to 100 nM; on EGFR T790M L858R it was at most 50 nM; in assay [1], at most 50 nM; in the assay with EGFR vIII Ba/F3 it was at most 50 nM. For the same molecule, the IC50 (in the assay with Cuto-17; on HER2 INS YVMA; in assay [2]) was at most 50 nM in each case.

Turning to `C=CC(=O)Nc1cc(-c2c(-c3ccc(N4CCN(C)CC4)cc3)[nH]c3ncc(-c4cnn(CC)c4)cc23)ccc1C` [Example 4, N-(5-(5-(1-ethyl-1H-pyrazol-4-yl)-2-(4-(4-methylpiperazin-1-yl)phenyl)-1 H-pyrrolo[2,3-b]pyridin-3-yl)-2-methylphenyl)acrylamide], the IC50 against EGFR wt is at most 50 nM; in the assay on A431, 500 to 1000 nM; in the assay on H1975 it was 100 to 500 nM; at EGFR T790M L858R, at most 50 nM; in assay [1] it was at most 50 nM; in the assay on EGFR vIII Ba/F3 it was at most 50 nM. For the same molecule, the IC50 in the assay on Cuto-17 was 100 to 500 nM; at HER2 INS YVMA, at most 50 nM; in assay [2], 50 to 100 nM.

`C=CC(=O)Nc1cc(-c2c(-c3ccc(N4CCN(C)CC4)cc3)[nH]c3ncc(-c4cn(C)nc4C)cc23)ccc1C` [Example 5, N-(5-(5-(1,3-dimethyl-1H-pyrazol-4-yl)-2-(4-(4-methylpiperazin-1-yl)phenyl)-1H-pyrrolo[2,3-b]pyridin-3-yl)-2-methylphenyl)acrylamide]: the IC50 against EGFR wt is at most 50 nM; in the assay with A431, 1000 to 10000 nM; with H1975, 500 to 1000 nM; on EGFR (del746-750), at most 50 nM; on EGFR T790M L858R it was at most 50 nM; in assay [1], at most 50 nM. The IC50 in the assay on EGFR vIII Ba/F3 is 50 to 100 nM; in the assay on Cuto-17, 100 to 500 nM; on HER2 INS YVMA, at most 50 nM; at EGFR L858R, at most 50 nM; in [2] it was 100 to 500 nM.

As to `C=CC(=O)Nc1cc(-c2c(-c3ccc(N4CCN(C)CC4)cc3)[nH]c3ncc(-c4cnn(C5CC5)c4)cc23)ccc1C` [Example 6, N-(5-(5-(1-cyclopropyl-1H-pyrazol-4-yl)-2-(4-(4-methylpiperazin-1-yl)phenyl)-1H-pyrrolo[2,3-b]pyridin-3-yl)-2-methylphenyl)acrylamide], the IC50 is at most 50 nM at EGFR wt; 1000 to 10000 nM in the assay on A431; at most 50 nM in the assay with EGFR L858R Ba/F3; 100 to 500 nM in the assay with H1975; at most 50 nM at EGFR (del746-750); at most 50 nM against EGFR T790M L858R. In addition, the IC50 in assay [1] is at most 50 nM; with EGFR L858R T790M Ba/F3 it was at most 50 nM; in the assay with EGFR vIII Ba/F3, at most 50 nM; in the assay on Cuto-17, 100 to 500 nM; against HER2 INS YVMA, at most 50 nM; against EGFR L858R, at most 50 nM. For the same molecule, the IC50 in assay [2] was at most 50 nM.

Regarding `C=CC(=O)Nc1cc(-c2c(-c3ccc(N4CCN(C)CC4)cc3)[nH]c3ncc(-c4cnn(CCOC)c4)cc23)ccc1C` [Example 7, N-(5-(5-(1-(2-methoxyethyl)-1H-pyrazol-4-yl)-2-(4-(4-methylpiperazin-1-yl)phenyl)-1H-pyrrolo[2,3-b]pyridin-3-yl)-2-methylphenyl)acrylamide], the IC50 was at most 50 nM against EGFR wt; 1000 to 10000 nM in the assay on A431; 100 to 500 nM with H1975; at most 50 nM against EGFR T790M L858R; at most 50 nM in [1]; at most 50 nM in the assay with EGFR vIII Ba/F3. The IC50 is 100 to 500 nM with Cuto-17, at most 50 nM at HER2 INS YVMA and 100 to 500 nM in assay [2].
